Experimental data from patent US10064797B2, “Topical formulations for UV protection” (TOPGENIX, INC., priority 2014, dated 2018).

Assays:
[1] = UV absorption spectra of the compounds, avobenzone and their combinations; format: physicochemical; settings: for UV absorption: 320 nm and 400 nm, each compound alone
Protocol: (§1) In both cases, the absorptivity of these two compounds were studied. In addition, photostability of these two compounds were also assessed by taking a second UV absorption spectra after exposing the compounds to UV. Photostability of sun screening compounds are of critical importance as a compound would be completely ineffective if they lose their UV absorptive qualities shortly after being exposed to solar radiation.
Avobenzone is an example for a known chemical UV absorber that can be combined.

[2] = Photostability: UV absorption spectra before and after UV exposure; format: physicochemical; settings: before vs after UV exposure; 290 nm to 400 nm; FIGS. 2 and 4
Protocol: as §1
Turning to FIG. 2, this set of spectra show the effects of UV exposure on 3-hydroxy-2-methoxy-cyclo-2-enone, avobenzone, and combinations thereof over a wavelength range of 290 nm and 400 nm. A first spectrum 210 and a second spectrum 212 are for avobenzone before and after UV exposure. A third spectrum 220 and a fourth spectrum 222 are for 3-hydroxy-2-methoxy-cyclo-2-enone before and after UV exposure, respectively. A fifth spectrum 230 and a sixth spectrum 232 correspond to a combination of 3-hydroxy-2-methoxy-cyclo-2-enone and avobenzone at a ratio of 1:2 before and after UV exposure, respectively. Finally, a seventh spectrum 240 and an eighth spectrum 242 correspond to a combination of 3-hydroxy-2-methoxy-cyclo-2-enone and avobenzone at a ratio of 2:1 before and after UV exposure, respectively.
A first spectrum 410 and a second spectrum 412 are for avobenzone before and after UV exposure. […]

Molecule | UV absorption ([1]; FIG. 1) | change of UV absorption after UV exposure (photostability) [2] | absorbance at 320 nm relative to strongest absorbance ([1]; at 320 nm, FIG. 1) | wavelength of strongest (maximum) UV absorption ([1]; compound alone)
COc1ccc(C(=O)CC(=O)c2ccc(C(C)(C)C)cc2)cc1 [avobenzone, reference compound] | relatively low | dropped overall |  | 
3-Hydroxy-2-methoxy-cyclo-2-enone | relatively low | dropped overall | drops off by approximately half | around 262 nm
